The text below walks through data of patent US20230022859A1, “TREATMENT OF CANCER WITH ANTI-OX40 ANTIBODIES AND MULTI-KINASE INHIBITORS” (BEIGENE, LTD., priority 2019, published 2023).

Where a chain is given by its changes, count along the chain named. Numbers in names are those of the source.

The subject of assay [1] is CT26WT cells, a murine colon cancer cell line. The experiment in a line: CT26WT syngeneic colon tumor model, OX86 and Compound 1. The format is in vivo, BALB/c mice. The note with it: OX86 0.08 mg/kg QW i.p.; Compound 1 15 mg/kg QD p.o. As for the experimental part:
Female BALB/c mice were subcutaneously implanted with 1×10^5 CT26WT cells, a murine colon cancer cell line, in 100 μL PBS in the right flank. After inoculation, the mice were randomized into 4 groups with 20 animals in each group according to the inoculation order. The mice were treated with vehicle (PEG400/0.1N HCl in saline, 40/60) as a negative control.
As monotherapy, OX86 was administered at 0.08 mg/kg once per week (QW) by intraperitoneal (i.p.) injection
Compound 1 was administered as a single therapy at 15 mg/kg once per day (QD) by oral gavage (p.o.). OX86 was administered at 0.08 mg/kg once per week (QW) by intraperitoneal (i.p.) injection in combination with Compound 1 at 15 mg/kg once per day (QD) by oral gavage (p.o.). Tumor volume was determined twice weekly in two dimensions using a caliper, and was expressed in mm3 using the formula: V=0.5(a×b2) where a and b are the long and short diameters of the tumor, respectively. Data is presented as mean tumor volume ±standard error of the mean (SEM). Tumor growth inhibition (TGI) is calculated using the following formula: […]

The test system of assay [2] is tyrosine kinases, including RET, CBL, CHR4q12, DDR and Trk. Conditions: cited from earlier work.
The test system of assay [3] is MC38 cells, a murine colon adenocarcinoma line. In words: MC38 syngeneic colon adenocarcinoma model, 1A7.gr1 and Compound 1. Format: in vivo, C57BL/6 mice. As for the experimental part:
Female C57BL/6 mice were subcutaneously implanted with 2×10^7 MC38 cells, a murine colon adenocarcinoma line; in 100 μL PBS in the right frank. After inoculation, mice were randomized into 4 groups according to tumor volume. Mice were treated with vehicle (PEG400/0.1N HCL in saline, 40/60) as a control. 1A7.gr1 (sequence previously disclosed in US 20150307617) was confirmed to bind to mouse OX40 in house.
The 1A7.gr1 antibody was administered at 2 mg/kg per week by intraperitoneal injection as a single agent. […] The 1A7.gr1 antibody in combination with Compound 1 was administered at the same dosages and routes of administration as described above. Tumor volumes were determined twice weekly.

Assay [4] has as its target T1, interaction between OX40 and OX40 ligand (Mus musculus, UniProt P47741).
T1 sequence (P47741 20-272): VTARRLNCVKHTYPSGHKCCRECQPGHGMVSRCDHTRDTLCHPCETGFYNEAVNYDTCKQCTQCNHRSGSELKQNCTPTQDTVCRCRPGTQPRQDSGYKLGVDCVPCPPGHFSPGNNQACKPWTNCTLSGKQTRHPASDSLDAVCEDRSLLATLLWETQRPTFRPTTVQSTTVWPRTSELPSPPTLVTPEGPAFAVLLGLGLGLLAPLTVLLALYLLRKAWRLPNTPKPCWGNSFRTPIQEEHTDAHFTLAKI
T1 sequence (P43488 1-198 partner): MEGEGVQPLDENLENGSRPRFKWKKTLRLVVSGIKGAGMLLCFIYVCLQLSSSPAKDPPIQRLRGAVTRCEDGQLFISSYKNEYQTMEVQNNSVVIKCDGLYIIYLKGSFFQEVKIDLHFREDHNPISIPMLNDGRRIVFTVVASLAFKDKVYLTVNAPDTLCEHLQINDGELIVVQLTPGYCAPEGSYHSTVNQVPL
The note with it: cited from earlier work.

The target in assay [5] is T2, full-length human OX40 expressed on HuT78/OX40 cells (human, UniProt P43489 29-277).
T2 sequence: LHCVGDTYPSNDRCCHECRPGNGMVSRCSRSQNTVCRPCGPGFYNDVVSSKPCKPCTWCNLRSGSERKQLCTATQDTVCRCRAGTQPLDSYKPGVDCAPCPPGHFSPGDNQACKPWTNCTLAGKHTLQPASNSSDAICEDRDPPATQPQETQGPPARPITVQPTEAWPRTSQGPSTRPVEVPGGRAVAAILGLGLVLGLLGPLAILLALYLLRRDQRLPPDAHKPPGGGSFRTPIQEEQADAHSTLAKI
In words: FACS; cells not named in the sentence (taken as OX40-expressing cells); reference 445-2. For orientation: A flow cytometer gives signals particle by particle.

Assay [6] concerns the target T3, recombinant OX40 protein with a His tag (Cat: 10481-H08H, Sino Biological) (UniProt P43489 29-216).
T3 construct: Bought protein; not shown: His tag
T3 sequence (looked up): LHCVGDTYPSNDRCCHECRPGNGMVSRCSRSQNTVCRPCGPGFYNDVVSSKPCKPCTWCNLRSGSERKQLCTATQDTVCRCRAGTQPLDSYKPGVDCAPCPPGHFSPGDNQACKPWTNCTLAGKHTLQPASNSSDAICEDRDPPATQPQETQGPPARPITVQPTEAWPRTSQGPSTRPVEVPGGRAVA
The experiment in a line: Biacore; OX40 protein not given; reference 445-2. In general terms: Surface plasmon resonance follows binding to a sensor surface in real time, without labels.

Where [7] appears, read: 1A7.gr1 2 mg/kg QW i.p., Compound 1 15 mg/kg QD p.o.

For `COCCNCc1ccc(-c2cc3nccc(Oc4ccc(NC(=O)C5(C(=O)Nc6ccc(F)cc6)CC5)cc4F)c3s2)nc1` [Compound 1], in assay [1], the “Mean Tumor Volume on Day 24 (mean ± SEM)” value was determined as 177.4 ± 28.5 mm^3, the “TGI (%) on Day 24” value is listed as 91% and the “Tumor Free Animal (%) on Day 69 (complete responders)” value stood at 5%. Besides, the “inhibition of tyrosine kinases” value in assay [2] is recorded as “potent inhibition”. Also, in assay [3] (setting [7]), the “Mean Tumor Volume on Day 29 (mean ± SEM)” value amounted to 712.5 mm^3 and the “TGI (%) on Day 22” value came to 80%. The “complete response / mice being tumor free on day 22” value in assay [3] (1A7.gr1 2 mg/kg QW×4, Compound 1 15 mg/kg QD×22) was found to be 80%.

B1: OX86: rat anti-mouse OX40 antibody of WO2016/057667 engineered with mouse IgG2a constant regions, VH SEQ ID NO: 32, VL SEQ ID NO: 33 (antibody, V domains shown)
VH: QVQLKESGPGLVQPSQTLSLTCTVSGFSLTGYNLHWVRQPPGKGLEWMGRMRYDGDTYYNSVLKSRLSISRDTSKNQVFLKMNSLQTDDTAIYYCTRDGRGDSFDYWGQGVMVTVSS
VL: DIVMTQGALPNPVPSGESASITCRSSQSLVYKDGQTYLNWFLQRPGQSPQLLTYWMSTRASGVSDRFSGSGSGTYFTLKISRVRAEDAGVYYCQQVREYPFTFGSGTKLEIK
modifications: mouse IgG2a constant regions
Turning to B1, in assay [4], the “blocking of OX40-OX40 ligand interaction” value is “does not block the interaction between OX40 and OX40 ligand”. In assay [1], the “Mean Tumor Volume on Day 24 (mean ± SEM)” value stood at 308.5 ± 115.8 mm^3, the “TGI (%) on Day 24” value was determined as 84% and the “Tumor Free Animal (%) on Day 69 (complete responders)” value stood at 50%.

B2: 445-2 variant with K28T in the heavy chain and S24R in the light chain (antibody, V domains shown)
VH: QVQLVQSGAEVKKPGSSVKVSCKASGYTFTSYIIHWVRQAPGQGLEWMGYINPYNEGTRYAQKFQGRVTLTADKSTSTAYMELSSLRSEDTAVYYCARGYYGSSYAMDYWGQGTTVTVSS
VL: DIQMTQSPSSLSASVGDRVTITCRASQGISNYLNWYQQKPGKAIKLLIYDASTLYSGVPSRFSGSGSGTDFTLTISSLQPEDFATYYCQQYSKLPYTFGGGTKVEIK
For the molecule B2, the “fold increase to the EC50 over the original 445-2 antibody” value in assay [5] came out at 1.7 fold.

B3: 445-2 variant with Y27G in the heavy chain and S24R in the light chain (antibody, V domains shown)
VH: B2 VH with Y27G, T28K
VL: B2 VL
With B3, the “fold increase to the KD over the original 445-2 antibody” value in assay [6] was determined as 1.7 fold.
